Experimental data published in ChEMBL document CHEMBL1130635, “4-Phenyl-4-oxo-butanoic acid derivatives inhibitors of kynurenine 3-hydroxylase” (Bioorg Med Chem Lett, 1998).

Experiments:
[1] = target: T1, Kynurenine 3-monooxygenase (Rattus norvegicus, UniProt O88867); test: Inhibition of rat liver KYN 3-OHase.
[2] = target: T1, Kynurenine 3-monooxygenase; test: Inhibition of rat brain KYN 3-OHase.
[3] = target: T1, Kynurenine 3-monooxygenase; test: Compound was evaluated for the inhibition of rat liver KYN 3-OHase
[4] = target: Kynurenine/alpha-aminoadipate aminotransferase, mitochondrial (Rattus norvegicus) (UniProt Q64602); test: Compound was evaluated for inhibition of rat liver KAT at 100 uM
[5] = test system: Pseudomonas fluorescens; test: Compound was evaluated for inhibition of PHBH. at 100 uM
[6] = target: T2, FMO (Mus musculus, UniProt Q64133+Q8BW75); test: Compound was evaluated for inhibition of FMO. at 100 uM; format: protein assay
T2 sequence (Q8BW75 whole entry): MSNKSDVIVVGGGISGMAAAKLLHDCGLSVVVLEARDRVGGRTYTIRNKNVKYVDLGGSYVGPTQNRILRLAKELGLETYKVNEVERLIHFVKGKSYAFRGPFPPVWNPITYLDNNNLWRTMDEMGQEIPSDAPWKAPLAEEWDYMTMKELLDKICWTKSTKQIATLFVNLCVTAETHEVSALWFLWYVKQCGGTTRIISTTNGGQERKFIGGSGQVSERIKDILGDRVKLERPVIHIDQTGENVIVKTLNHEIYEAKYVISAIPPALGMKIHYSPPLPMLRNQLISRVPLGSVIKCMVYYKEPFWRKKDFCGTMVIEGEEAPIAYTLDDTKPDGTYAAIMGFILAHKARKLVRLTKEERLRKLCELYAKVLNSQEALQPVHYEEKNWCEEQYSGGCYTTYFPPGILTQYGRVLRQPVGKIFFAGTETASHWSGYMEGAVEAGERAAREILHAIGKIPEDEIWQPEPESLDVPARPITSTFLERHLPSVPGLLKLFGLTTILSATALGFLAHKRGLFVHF
T2 sequence (Q64133 whole entry): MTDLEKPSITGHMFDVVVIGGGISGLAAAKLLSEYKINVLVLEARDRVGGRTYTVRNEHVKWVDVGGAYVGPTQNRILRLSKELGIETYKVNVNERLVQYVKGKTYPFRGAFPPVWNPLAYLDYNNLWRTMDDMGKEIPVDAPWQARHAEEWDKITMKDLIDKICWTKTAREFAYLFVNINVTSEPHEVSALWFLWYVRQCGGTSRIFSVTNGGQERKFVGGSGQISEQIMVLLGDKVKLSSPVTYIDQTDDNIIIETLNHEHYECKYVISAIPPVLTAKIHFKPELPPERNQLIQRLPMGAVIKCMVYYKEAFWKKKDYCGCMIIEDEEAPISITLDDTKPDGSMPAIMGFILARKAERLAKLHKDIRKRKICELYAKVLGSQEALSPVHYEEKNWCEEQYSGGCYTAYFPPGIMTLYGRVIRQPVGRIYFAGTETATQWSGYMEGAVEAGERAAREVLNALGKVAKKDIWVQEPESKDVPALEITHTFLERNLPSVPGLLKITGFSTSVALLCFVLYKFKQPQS

[7] = target: T3, Kynureninase (Rattus norvegicus) (UniProt P70712); test: Compound was evaluated for inhibition of rat liver KYN ase at 100 uM
T3 sequence (whole entry): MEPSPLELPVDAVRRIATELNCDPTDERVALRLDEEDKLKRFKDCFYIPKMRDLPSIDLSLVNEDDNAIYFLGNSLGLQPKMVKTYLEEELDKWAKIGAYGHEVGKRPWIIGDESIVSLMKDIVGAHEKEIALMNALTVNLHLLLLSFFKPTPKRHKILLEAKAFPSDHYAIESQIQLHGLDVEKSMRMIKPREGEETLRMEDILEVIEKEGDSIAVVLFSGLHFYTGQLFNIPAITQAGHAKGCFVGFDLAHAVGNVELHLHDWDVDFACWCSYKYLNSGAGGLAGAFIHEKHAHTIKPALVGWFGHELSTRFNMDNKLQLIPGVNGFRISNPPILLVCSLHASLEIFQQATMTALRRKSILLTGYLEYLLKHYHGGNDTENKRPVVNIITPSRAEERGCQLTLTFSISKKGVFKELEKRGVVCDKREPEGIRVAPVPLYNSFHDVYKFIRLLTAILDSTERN

[8] = target: Kynurenine 3-monooxygenase (Rattus norvegicus) (UniProt O88867); test: Inhibition of rat liver KYN 3-OHase at 100 uM concentration
[9] = target: T3, Kynureninase (Rattus norvegicus); test: Compound was evaluated for inhibition of rat liver KYN ase at 100 uM concentration
[10] = test system: Pseudomonas fluorescens; test: Compound was evaluated for inhibition of PHBH at 100 uM concentration
[11] = target: Kynurenine/alpha-aminoadipate aminotransferase, mitochondrial (Rattus norvegicus) (UniProt Q64602); test: Compound was evaluated for inhibition of rat liver KAT at 100 uM concentration.
[12] = target: T2, FMO; test: Compound was evaluated for inhibition of FMO at 100 uM concentration; format: protein assay
[13] = target: Kynurenine/alpha-aminoadipate aminotransferase, mitochondrial (Rattus norvegicus) (UniProt Q64602); test: Compound was evaluated for inhibition of rat liver KAT at 100 uM concentration

Chain of Kynurenine/alpha-aminoadipate aminotransferase, mitochondrial (Rattus norvegicus) (Q64602 30-425 limits assumed): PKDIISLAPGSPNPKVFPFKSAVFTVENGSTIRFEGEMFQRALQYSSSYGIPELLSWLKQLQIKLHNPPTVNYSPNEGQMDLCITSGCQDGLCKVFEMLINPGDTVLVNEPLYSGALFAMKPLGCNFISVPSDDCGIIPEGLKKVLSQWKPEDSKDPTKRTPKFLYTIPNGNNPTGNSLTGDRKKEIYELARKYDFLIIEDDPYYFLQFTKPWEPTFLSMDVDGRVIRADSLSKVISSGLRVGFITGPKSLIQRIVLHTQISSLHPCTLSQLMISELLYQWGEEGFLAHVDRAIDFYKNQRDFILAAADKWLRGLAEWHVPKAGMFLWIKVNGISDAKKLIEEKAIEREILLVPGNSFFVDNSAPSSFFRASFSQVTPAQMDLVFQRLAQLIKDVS
T1 sequence (O88867 whole entry): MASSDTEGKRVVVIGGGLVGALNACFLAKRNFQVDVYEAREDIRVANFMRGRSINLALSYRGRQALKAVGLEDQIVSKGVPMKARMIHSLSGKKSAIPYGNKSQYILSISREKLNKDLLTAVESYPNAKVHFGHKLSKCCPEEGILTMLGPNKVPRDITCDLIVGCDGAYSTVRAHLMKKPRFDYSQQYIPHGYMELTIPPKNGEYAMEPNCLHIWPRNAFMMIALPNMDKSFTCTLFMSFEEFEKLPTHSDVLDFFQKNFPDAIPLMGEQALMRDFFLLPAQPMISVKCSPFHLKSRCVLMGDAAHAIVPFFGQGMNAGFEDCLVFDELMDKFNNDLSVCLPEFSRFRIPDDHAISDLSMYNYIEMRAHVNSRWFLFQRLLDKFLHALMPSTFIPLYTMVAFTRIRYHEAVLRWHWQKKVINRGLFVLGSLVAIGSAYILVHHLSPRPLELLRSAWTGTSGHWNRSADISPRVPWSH
Chain of Kynurenine 3-monooxygenase (Rattus norvegicus) (O88867 whole entry, looked up): as the sequence (O88867 whole entry) above

Structure (SMILES)	IC50 [1] [nM]	IC50 [2] [nM]	inhibition [8] [%]	also measured
O=C(O)C(=O)/C=C(\O)c1ccc(Cl)c(Cl)c1	6400	950	–	–
NC(CC(=O)c1ccc(Cl)c(Cl)c1)C(=O)O (centres undefined)	–	–	–	IC50 [3]: 330 nM; inhibition [4]: 14%; inhibition [5]: 2%; inhibition at 100 µM [6]: 8.5%; inhibition [7]: 10%
O=C(CC(O)C(=O)O)c1ccc(Cl)c(Cl)c1 (centres undefined)	–	–	–	inhibition [9]: 0%; inhibition [10]: 29%; inhibition [11]: 23%
O=C(O)C(=O)/C=C(\O)c1ccc(F)c(F)c1	1200	440	–	–
O=C(CC(Cc1ccccc1)C(=O)O)c1ccc(Cl)c(Cl)c1 (centres undefined)	–	–	–	inhibition at 100 µM [12]: 16%; inhibition [9]: 0%; inhibition [10]: 8%; inhibition [13]: 8%
COc1ccc(C(=O)CC(O)C(=O)O)cc1 (centres undefined)	–	–	7	–
O=C(CC(O)C(=O)O)c1cccc(Cl)c1 (centres undefined)	1100	480	–	–
O=C(CC(C(=O)O)c1ccccc1)c1ccc(Cl)c(Cl)c1 (centres undefined)	19500	–	–	–

Second part, led by results:

IC50 [1] [nM]	IC50 [2] [nM]	inhibition [8] [%]	Structure (SMILES)	also measured
–	–	35	CC(N)(CC(=O)c1ccc(Cl)c(Cl)c1)C(=O)O (centres undefined)	–
–	–	2	NCCC(=O)c1ccc(Cl)c(Cl)c1	–
–	–	20	O=C(CC1(C(=O)O)CC1)c1ccc(Cl)c(Cl)c1	–
–	–	21	CC(C)(CC(=O)c1ccc(Cl)c(Cl)c1)C(=O)O	–
11300	2200	–	C/C(=C\C(=O)c1ccc(Cl)c(Cl)c1)C(=O)O	–
14800	2200	–	O=C(CC(Cl)C(=O)O)c1ccc(Cl)c(Cl)c1 (centres undefined)	–
–	–	43	CC(O)(CC(=O)c1ccc(Cl)c(Cl)c1)C(=O)O (centres undefined)	–
